Measurements as given in the NIST ThermoML archive (doi:10.1016/j.fluid.2012.01.014).

Assay: cn = amount concentration of the nth substance listed, in mol/dm3
Conditions: Ring tensiometer

CCCCCCCCCCCCCCCC[n+]1ccccc1.[Br-] [1-hexadecylpyridinium bromide] + O
surface tension liquid-gas [mN/m]
Conditions | 293 K | 303 K | 313 K
c1 = 1e-08 | 72.8 | 71.2 | 69.6
c1 = 5.01e-08 | 72.8 | 71.19 | 69.59
c1 = 1e-07 | 72.75 | 71.18 | 69.57
c1 = 5.01e-07 | 72.7 | 71.13 | 69.54
c1 = 1e-06 | 72.6 | 71.07 | 69.49
c1 = 5.01e-06 | 71.7 | 70.56 | 69.04
c1 = 1e-05 | 71.1 | 69.97 | 68.52
c1 = 2e-05 | 69.8 | 68.91 | 67.58
c1 = 5.01e-05 | 67.4 | 66.38 | 65.26
c1 = 0.0001 | 63 | 61.8 | 60.65
c1 = 0.0002 | 54.6 | 53.41 | 53.01
c1 = 0.000398 | 45.5 | 44.73 | 44.56
c1 = 0.000631 | 44.8 | 44.03 | 43.87
c1 = 0.000794 | 45.3 | 44.04 | 43.86
c1 = 0.001 | 44.4 | 43.92 | 43.75
c1 = 0.002 | 44 | 43.81 | 43.68
c1 = 0.00398 | 44.5 | 43.79 | 43.64
c1 = 0.00603 | 44.1 | 43.62 | 43.53
c1 = 0.00794 | 43.2 | 42.83 | 42.74
c1 = 0.01 | 43.2 | 42.75 | 42.65
c1 = 0.0302 | 39.4 | 38.89 | 38.9
c1 = 0.0603 | 38.8 | 38.02 | 37.95

CCCCCCCCCCCCCCCC[N+](C)(C)C.[Br-] [N,N,N-trimethyl-1-hexadecanaminium bromide] + O
surface tension liquid-gas [mN/m]
Conditions | 293 K | 303 K | 313 K
c1 = 1e-08 | 72.79 | 71.2 | 69.6
c1 = 1e-07 | 72.78 | 71.19 | 69.59
c1 = 5.01e-07 | 72.73 | 71.16 | 69.56
c1 = 1e-06 | 72.66 | 71.11 | 69.52
c1 = 2e-06 | 72.54 | 71.03 | 69.45
c1 = 3.98e-06 | 72.31 | 70.86 | 69.3
c1 = 6.31e-06 | 72.1 | 70.69 | 69.16
c1 = 7.94e-06 | 71.91 | 70.53 | 69.02
c1 = 1e-05 | 71.73 | 70.37 | 68.88
c1 = 2e-05 | 70.97 | 69.62 | 68.22
c1 = 3.02e-05 | 70.31 | 68.93 | 67.61
c1 = 3.98e-05 | 69.72 | 68.3 | 67.04
c1 = 5.01e-05 | 69.2 | 67.72 | 66.51
c1 = 6.03e-05 | 68.81 | 67.18 | 66.01
c1 = 7.08e-05 | 68.48 | 66.67 | 65.54
c1 = 7.94e-05 | 68.06 | 66.2 | 65.1
c1 = 9.12e-05 | 67.15 | 65.75 | 64.68
c1 = 0.0001 | 66.41 | 65.32 | 64.28
c1 = 0.0002 | 60.86 | 60.52 | 59.45
c1 = 0.000302 | 54.74 | 54.35 | 53.95
c1 = 0.000398 | 50.39 | 50.02 | 49.72
c1 = 0.000501 | 47.02 | 46.83 | 46.15
c1 = 0.000603 | 44.27 | 44.12 | 43.53
c1 = 0.000708 | 41.94 | 41.82 | 41.22
c1 = 0.000794 | 39.92 | 39.75 | 39
c1 = 0.000891 | 38.15 | 38.01 | 37.25
c1 = 0.000912 | 37.9 | 37.8 | 37
c1 = 0.001 | 37.9 | 37.2 | 36.4
c1 = 0.002 | 37.8 | 37.14 | 36.4

CCCCCCCCCCCC[N+](C)(C)Cc1ccccc1.[Br-] [benzenemethanaminium, N-dodecyl-N,N-dimethyl, bromide] + O
surface tension liquid-gas [mN/m]
Conditions | 293 K | 303 K | 313 K
c1 = 1e-07 | 72.4 | 71.18 | 69.58
c1 = 5.01e-07 | 72.3 | 71.09 | 69.49
c1 = 1e-06 | 71.6 | 70.98 | 69.38
c1 = 5.01e-06 | 70.7 | 70.22 | 68.59
c1 = 1e-05 | 69.6 | 69.44 | 67.78
c1 = 5.01e-05 | 66.8 | 65.88 | 64.1
c1 = 0.0001 | 64.3 | 63.66 | 61.81
c1 = 0.000316 | 55.3 | 54.19 | 53.4
c1 = 0.000501 | 51.7 | 50.07 | 49.15
c1 = 0.001 | 46.2 | 44.48 | 43.37
c1 = 0.002 | 41.1 | 40 | 38.93
c1 = 0.00316 | 37.8 | 36.73 | 35.76
c1 = 0.00398 | 36 | 34.82 | 33.92
c1 = 0.00501 | 34.5 | 33.11 | 32.67
c1 = 0.00708 | 34.5 | 33.11 | 32.67
c1 = 0.01 | 34.4 | 33.11 | 32.67

CCCCCCCCCCCC[N+](C)(C)CC.[Br-] [dodecyl ethyl dimethylammonium bromide] + O
surface tension liquid-gas [mN/m]
Conditions | 293 K | 303 K | 313 K
c1 = 1e-07 | 72.6 | 71.2 | 69.6
c1 = 5.01e-07 | 72.4 | 71.19 | 69.6
c1 = 1e-06 | 72.3 | 71.19 | 69.59
c1 = 5.01e-06 | 72.2 | 71.13 | 69.56
c1 = 1e-05 | 71.7 | 71.06 | 69.53
c1 = 5.01e-05 | 70.7 | 70.54 | 69.24
c1 = 0.0001 | 70 | 69.94 | 68.89
c1 = 0.000501 | 67.8 | 66.59 | 65.63
c1 = 0.001 | 65.1 | 63.91 | 62.94
c1 = 0.002 | 60.3 | 60.54 | 59.58
c1 = 0.00316 | 56.4 | 56.13 | 55.17
c1 = 0.00398 | 52.4 | 52.36 | 51.87
c1 = 0.00501 | 50 | 49.44 | 48.85
c1 = 0.00631 | 47.3 | 46.78 | 46.39
c1 = 0.00794 | 44.3 | 43.72 | 43.12
c1 = 0.00891 | 42.8 | 42.12 | 41.71
c1 = 0.01 | 41.5 | 40.73 | 39.82
c1 = 0.0251 | 40.9 | 40.01 | 39.43
c1 = 0.0501 | 40.6 | 39.82 | 38.75
c1 = 0.1 | 39.4 | 39 | 38.24
